Measured values taken from paper PMC4740573 (Clinical Drug Investigation, 2015).
Values belong to the molecule of their own block, whether it stands above or below them.

Legend:
[1] = cited from earlier work
[2] = Safety assessment; format: in vivo, human; settings: healthy adult subjects
[3] = system: thrombin generation; assay: Technothrombin thrombin generation assay; format: in vivo, human; settings: for Endogenous thrombin potential A max / Endogenous thrombin potential A min / Lag time A max / Lag time A min / Peak thrombin A max / Peak thrombin A min / Time to peak A max / Time to peak A min / Velocity A max / Velocity A min: mean ± SD
[4] = system: activated partial thromboplastin time; assay: Activated partial thromboplastin time; format: in vivo, human; settings: for LS mean aPTT at 2 h after dosing: ANCOVA; for Activated partial thromboplastin time A max / Activated partial thromboplastin time A min / Activated partial thromboplastin time AUEτ: mean ± SD; for Activated partial thromboplastin time T max: median (minimum, maximum)
[5] = Plasma pharmacokinetics in healthy subjects; settings: for T max: median (minimum, maximum); for AUC: AUCτ, 24 h dosing interval; for Cmax: C max, healthy subjects
[6] = edoxaban after switching from dabigatran etexilate, day 4 (treatment 3)
[7] = edoxaban after switching from rivaroxaban, day 4 (treatment 2)
[8] = edoxaban alone, day 1 (treatment 1)
[9] = edoxaban alone, day 4 (treatment 1)
[10] = day 4, edoxaban after switching from dabigatran etexilate (treatment 3)
[11] = day 4, edoxaban after switching from rivaroxaban (treatment 2)
[12] = day 4, edoxaban alone (treatment 1)

Activated partial thromboplastin time T max [4, 10]: 1.00 (0.50, 3.00) h
Activated partial thromboplastin time T max [4, 11]: 1.00 (0.50, 4.00) h
Activated partial thromboplastin time T max [4, 12]: 1.50 (0.50, 4.00) h
T max ([5]; edoxaban day 4 after switching from dabigatran etexilate (treatment 3)): 1.00 (0.50, 3.00) h
T max ([5]; edoxaban day 4 after switching from rivaroxaban (treatment 2)): 1.00 (0.50, 2.00) h
Tmax ([5]; human, in vivo, 60 mg): 1 h
AUC ([5]; human, in vivo, 60 mg, edoxaban alone, day 1 (treatment 1), mean ± SD): 1780 ± 319 ng·h/mL
AUC ([5]; human, in vivo, 60 mg, edoxaban alone, day 4 (treatment 1), mean ± SD): 1990 ± 403 ng·h/mL
AUC ([5]; human, in vivo, 60 mg, edoxaban day 4 after switching from dabigatran etexilate (treatment 3), mean ± SD): 1680 ± 475 ng·h/mL
AUC ([5]; human, in vivo, 60 mg, edoxaban day 4 after switching from rivaroxaban (treatment 2), mean ± SD): 1740 ± 353 ng·h/mL
Cmax ([5]; human, in vivo, 60 mg, edoxaban 60 mg on day 4 after switching from dabigatran etexilate 150 mg twice daily for 3 days (treatment 3), mean ± SD): 280 ± 124 ng/mL
Cmax ([5]; human, in vivo, 60 mg, edoxaban 60 mg on day 4 after switching from rivaroxaban 20 mg once daily for 3 days (treatment 2), mean ± SD): 288 ± 113 ng/mL
Cmax ([5]; human, in vivo, 60 mg, edoxaban 60 mg once daily alone, day 1 (treatment 1), mean ± SD): 309 ± 97.2 ng/mL
Cmax ([5]; human, in vivo, 60 mg, edoxaban 60 mg once daily alone, day 4 (treatment 1), mean ± SD): 303 ± 87.7 ng/mL
concentration at 1 day ([5]; human, in vivo, 60 mg, C trough, edoxaban alone, day 1 (treatment 1), mean ± SD): 14 ± 5.44 ng/mL
concentration at 4 day ([5]; human, in vivo, 60 mg, C trough, edoxaban alone, day 4 (treatment 1), mean ± SD): 15.5 ± 3.98 ng/mL
concentration at 4 day ([5]; human, in vivo, 60 mg, C trough, edoxaban day 4 after switching from dabigatran etexilate (treatment 3), mean ± SD): 12.8 ± 4.13 ng/mL
concentration at 4 day ([5]; human, in vivo, 60 mg, C trough, edoxaban day 4 after switching from rivaroxaban (treatment 2), mean ± SD): 13.4 ± 5 ng/mL
Structure (SMILES): CN1CCc2nc(C(=O)N[C@@H]3C[C@@H](C(=O)N(C)C)CC[C@@H]3NC(=O)C(=O)Nc3ccc(Cl)cn3)sc2C1 [Edoxaban, edoxaban]
oral bioavailability [1]: approximately 62%
terminal elimination half-life [1]: 10 to 14 h
time to peak plasma concentration and peak antithrombotic effect ([1]; oral): 1 to 2 h
tolerability [2]: well tolerated
ETP Amax ([3]; day 4, continual edoxaban treatment (treatment 1)): 3644 ± 434 mN·min
Endogenous thrombin potential A max [3, 6]: 3338 ± 575 nM·min
Endogenous thrombin potential A min [3, 6]: 1239 ± 828 nM·min
Lag time A max [3, 6]: 55.3 ± 16.2 min
Lag time A min [3, 6]: 20.5 ± 3.60 min
Peak thrombin A max [3, 6]: 302 ± 77.0 nM
Peak thrombin A min [3, 6]: 48.9 ± 25.2 nM
Time to peak A max [3, 6]: 74.0 ± 12.4 min
Time to peak A min [3, 6]: 27.5 ± 7.94 min
Velocity A max [3, 6]: 46.5 ± 25.7 nM/min
Velocity A min [3, 6]: 2.13 ± 1.35 nM/min
Endogenous thrombin potential A max [3, 7]: 3680 ± 462 nM·min
Endogenous thrombin potential A min [3, 7]: 1506 ± 798 nM·min
Lag time A max [3, 7]: 39.9 ± 9.96 min
Lag time A min [3, 7]: 15.8 ± 3.54 min
Peak thrombin A max [3, 7]: 324 ± 123 nM
Peak thrombin A min [3, 7]: 49.2 ± 31.9 nM
Time to peak A max [3, 7]: 59.4 ± 14.6 min
Time to peak A min [3, 7]: 22.0 ± 5.15 min
Velocity A max [3, 7]: 67.4 ± 46.6 nM/min
Velocity A min [3, 7]: 3.04 ± 2.88 nM/min
Endogenous thrombin potential A max [3, 8]: 3635 ± 432 nM·min
Endogenous thrombin potential A min [3, 8]: 1520 ± 754 nM·min
Lag time A max [3, 8]: 38.3 ± 8.59 min
Lag time A min [3, 8]: 15.8 ± 2.25 min
Peak thrombin A max [3, 8]: 323 ± 98.1 nM
Peak thrombin A min [3, 8]: 45.7 ± 25.5 nM
Time to peak A max [3, 8]: 58.6 ± 12.6 min
Time to peak A min [3, 8]: 22.2 ± 4.13 min
Velocity A max [3, 8]: 61.4 ± 31.3 nM/min
Velocity A min [3, 8]: 2.62 ± 1.92 nM/min
Endogenous thrombin potential A max [3, 9]: 3644 ± 434 nM·min
Endogenous thrombin potential A min [3, 9]: 1474 ± 755 nM·min
Lag time A max [3, 9]: 37.8 ± 7.09 min
Lag time A min [3, 9]: 16.9 ± 2.41 min
Peak thrombin A max [3, 9]: 315 ± 90.6 nM
Peak thrombin A min [3, 9]: 43.4 ± 25.1 nM
Time to peak A max [3, 9]: 58.5 ± 12.2 min
Time to peak A min [3, 9]: 23.7 ± 4.29 min
Velocity A max [3, 9]: 58.4 ± 31.9 nM/min
Velocity A min [3, 9]: 2.40 ± 1.89 nM/min
LS mean aPTT at 2 h after dosing ([4]; day 4, after switching from dabigatran etexilate to edoxaban (treatment 3)): 47.6 s
Activated partial thromboplastin time A max [4, 10]: 50.8 ± 8.92 s
Activated partial thromboplastin time A min [4, 10]: 30.0 ± 2.20 s
Activated partial thromboplastin time AUEτ [4, 10]: 863 ± 87.3 s·h
Activated partial thromboplastin time A max [4, 11]: 36.5 ± 3.94 s
Activated partial thromboplastin time A min [4, 11]: 28.4 ± 2.13 s
Activated partial thromboplastin time AUEτ [4, 11]: 738 ± 58.6 s·h
LS mean aPTT at 2 h after dosing [4, 12]: 35.0 s
Activated partial thromboplastin time A max [4, 12]: 35.9 ± 3.15 s
Activated partial thromboplastin time A min [4, 12]: 27.7 ± 1.70 s
Activated partial thromboplastin time AUEτ [4, 12]: 725 ± 48.8 s·h
time to peak effect on aPTT ([4]; edoxaban alone (treatment 1), return to baseline by 24 h): 1 to 2 h

Structure (SMILES): CCCCCCOC(=O)NC(=N)c1ccc(NCc2nc3cc(C(=O)N(CCC(=O)OCC)c4ccccn4)ccc3n2C)cc1 [dabigatran etexilate]
tolerability [2]: well tolerated

Structure (SMILES): O=C(NC[C@H]1CN(c2ccc(N3CCOCC3=O)cc2)C(=O)O1)c1ccc(Cl)s1 [rivaroxaban]
tolerability [2]: well tolerated
